In article PMC8073686, “Characterization of Subtype Selective Cannabinoid CB2 Receptor Agonists as Potential Anti-Inflammatory Agents” (Pharmaceuticals, 2021):

Assays:
Type in all cases: cell-based, human
[1] = test system: IL-2 production in Jurkat cells; assay: PHA/PMA-induced IL-2 production in Jurkat cells (ELISA of culture medium); conditions: 10 μM, 24 h
Experimental: Activation of CB2 is known to have anti-inflammatory effects. There are some studies reporting that CB2 agonists decrease cytokine production in immune cells. We also reported that the cannabinoid receptor agonist CP55,940 and ABK5 inhibit cytokine production in the human T cell lines Jurkat and MOLT-4 [24]. Since ABK5-1 and 5-2 were confirmed to be CB2-subtype selective agonists, we were interested to determine whether these compounds also have anti-inflammatory effects. Note, although ABK5-6 had marginally better binding affinity to CB2, it bound to CB1 very, very weakly (i.e., micromolar range). Therefore ABK5-6 was not selected for further evaluations. […] To test if these mRNA changes are reflected in the protein levels of cytokines, the IL-2 and TNF-α concentration in the cell culture medium were measured by ELISA. […]
Figure 4 Effect of ABK5-1 and ABK5-2 on phytohemagglutinin (PHA)/phorbol 12-myristate 13-acetate (PMA)-induced cytokine production in T cells. […] IL-2 and TNF-α mRNA levels were determined by real-time PCR (RT-PCR) after ABK5-1 treatment and (A) 3 h and (B) 24 h of PHA/PMA (phytohemagglutinin/phorbol 12-myristate 13-acetate) stimulation. […] IL-2 and TNF-α mRNA were also examined after ABK5-2 treatment and (E) 3 h and (F) 24 h of stimulation, and protein levels of (G) IL-2 and (H) TNF-α were measured after 24 h stimulation. […]

Jurkat cells = assay: CXCL12-mediated Jurkat cell transwell migration assay; conditions: 2 h pretreatment, 2 h migration
Experimental: During inflammation, immune cells are attracted by chemoattractants and migrate to the site of inflammation. Therefore, an inhibitory effect on chemotaxis of immune cells is also a sign of anti-inflammatory effect. We evaluated ABK5-1 and ABK5-2 to determine if these compounds can inhibit CXCL12-mediated Jurkat cell migration. Jurkat cells were incubated with various concentrations of ABK5-1 or 5-2 and loaded on the transwells and allowed to migrate through the transwells to the bottom chamber, which include CXCL12. The cell number in the bottom chamber was determined after 2 h of loading. ABK5-1 inhibited Jurkat cell migration at 10 and 25 μM (Figure 5A). […] Again, to verify these observations were not due to cytotoxicity of test compounds, cell viability was also monitored by incubating cells with compound and CXCL12 without the transwells.
Figure 5 Effect of ABK5-1 and ABK5-2 on CXCL12-mediated Jurkat cell migration. Transwell migration of Jurkat cells treated with (A,B) ABK5-1 or (C,D) ABK5-2. Frames (A,C): Cells were treated with vehicle or various concentrations of test compounds for 2 h and then allowed to migrate through transwells for 2 h. Cell numbers migrated to the lower chamber are indicated as relative to vehicle (DMSO) alone. Results are indicated as the mean ± S.D. of three independent assays performed in triplicate for each concentration. Viability of cells treated with (B) ABK5-1 or (D) ABK5-2 after the migration assay was also examined. Cells were treated exactly the same but without transwells and viability was determined. Results are indicated as the mean ± S.D. of three independent assays performed for each concentration. One-way ANOVA plus Dunnett’s post-hoc test were used for both migration and viability assays. **** p < 0.0001 (versus vehicle control group).
The migration assay was performed as described previously. Briefly, a Transwell Multiple Well Plate with permeable polycarbonate membrane inserts ([…], 24-well, Corning, Corning, NY, USA) were used in migration assays. Jurkat cells were seeded at 2.5 × 10^6 cells/mL in RPMI medium containing 2.5% FBS and treated with DMSO or test compound for 2 h. Then a sample of cells were transferred to the top well. RPMI medium containing 0 to 1000 ng/mL CXCL12 and the appropriate concentration of test compound was loaded to the bottom chamber. Cells were allowed to migrate for 2 h and cells migrated from the top well to the bottom chamber were counted or measured by CCK-8 (Dojindo Molecular Technologies, Inc., Rockville, MD, USA) following the manufacturer instructions. For evaluation of cell viability, the same procedure used for the migration assay was performed without the transwells and the viable cells were counted or measured by CCK-8.

[2] = test system: TNF-α mRNA in Jurkat cells; assay: PHA/PMA-induced TNF-α mRNA in Jurkat cells (RT-PCR); conditions: 10 μM
Experimental: Activation of CB2 is known to have anti-inflammatory effects. There are some studies reporting that CB2 agonists decrease cytokine production in immune cells. We also reported that the cannabinoid receptor agonist CP55,940 and ABK5 inhibit cytokine production in the human T cell lines Jurkat and MOLT-4 [24]. Since ABK5-1 and 5-2 were confirmed to be CB2-subtype selective agonists, we were interested to determine whether these compounds also have anti-inflammatory effects. Note, although ABK5-6 had marginally better binding affinity to CB2, it bound to CB1 […] (i.e., micromolar range). Therefore ABK5-6 was not selected for further evaluations. We first tested the change of IL-2 and TNF-α mRNA levels in Jurkat cells. […] To test if these mRNA changes are reflected in the protein levels of cytokines, the IL-2 and TNF-α concentration in the cell culture medium were measured by ELISA. […] Unlike ABK5-1, at 3 h of treatment, the lowest concentration of ABK5-2 used caused the IL-2 mRNA decrease. […] On the other hand, TNF-α mRNA decreased by 45% at 10 μM ABK5-2 after 3 h of treatment (Figure 4E, black columns). […] These mRNA level changes were similar to that of ABK5-1, except ABK5-2 caused a stronger inhibitory effect on expression of TNF-α mRNA. […] Consistent with the mRNA levels, the inhibitory effect of ABK5-2 on TNF-α production was stronger than that of ABK5-1.
Figure 4 Effect of ABK5-1 and ABK5-2 on phytohemagglutinin (PHA)/phorbol 12-myristate 13-acetate (PMA)-induced cytokine production in T cells. Jurkat cells were pretreated with DMSO (<0.1%; indicated as 0 μM) or various concentrations of ABK5-1 (A–D) or ABK5-2 (E–H) and stimulated with PHA and PMA. IL-2 and TNF-α mRNA levels were determined by real-time PCR (RT-PCR) after ABK5-1 treatment and (A) 3 h and (B) 24 h of PHA/PMA (phytohemagglutinin/phorbol 12-myristate 13-acetate) stimulation. Protein levels of (C) IL-2 and (D) TNF-α were also examined after 24 h of stimulation. IL-2 and TNF-α mRNA were also examined after ABK5-2 treatment and (E) 3 h and (F) 24 h of stimulation, and protein levels of (G) IL-2 and (H) TNF-α were measured after 24 h stimulation. […]
Jurkat cells were lysed and total RNA was extracted using TRIzol Reagent (Life Technologies, Carlsbad, CA, USA) followed by reverse transcription by a High-Capacity cDNA Reverse Transcription kit (Life Technologies, Carlsbad, CA, USA) according to the manufacturer’s instructions. Quantitative real-time PCR was performed using an Applied Biosystems 7500 Fast Real-Time PCR system in a 10 μL reaction volume containing 2 μL diluted cDNA and 0.5 μM each of forward and reverse primers, and PowerUp SYBR Green Master Mix (Life Technologies, Carlsbad, CA, USA). […]

| Structure (SMILES) | decrease of IL-2 production (protein, ELISA) [1] | decrease of cell migration (Jurkat cells; 10 μM) | decrease of cell migration (Jurkat cells; 25 μM) [%] | decrease of TNF-α mRNA ([2]; 3 h PHA/PMA stimulation) [%] | decrease of TNF-α mRNA ([2]; 24 h) |
| --- | --- | --- | --- | --- | --- |
| CCOC(=O)c1ccccc1NC(=O)CN(c1ccc(C)cc1C)S(=O)(=O)c1ccccc1 [ABK5-1] | about 42% | about 35% | ~43 | 35 | 50% |
| CCOC(=O)c1ccccc1NC(=O)CN(c1c(C)cccc1C)S(=O)(=O)c1ccccc1 [ABK5-2] | about 42% | 32% | 32 | 45 | about 60% |
